The supplement of paper PMC8960247
Counter-ions that a name gives are not always drawn. ± gives the standard error.

Tests used:
[1] = test system: 621-102 (TSC2-deficient); experiment: relative viability vs DMSO; higher = less cytotoxic; details: serum: 10% FBS, 72 h
[2] = test system: 621-103 (TSC2-rescued); experiment: as above; details: serum: 10% FBS, 72 h
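Note: immortalized renal angiomyolipoma cells stably carrying empty vector or TSC2, dosed in 384-well plates in DMEM, viability normalized to vehicle-treated wells within each plate.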

| SMILES | relative viability ([1]; 0.0001 µM) [%] | relative viability ([1]; 0.001 µM) [%] | relative viability ([1]; 0.01 µM) [%] | relative viability ([1]; 0.1 µM) [%] | relative viability ([1]; 1 µM) [%] | relative viability ([1]; 10 µM) [%] | relative viability ([2]; 0.0001 µM) [%] | relative viability ([2]; 0.001 µM) [%] | relative viability ([2]; 0.01 µM) [%] | relative viability ([2]; 0.1 µM) [%] | relative viability ([2]; 1 µM) [%] | relative viability ([2]; 10 µM) [%] |
| --- | --- | --- | --- | --- | --- | --- | --- | --- | --- | --- | --- | --- |
| COc1cc2c(Oc3ccc4[nH]c(C)cc4c3F)ncnc2cc1OCCCN1CCCC1 [Cediranib (AZD2171)] | 104 ± 3.6 | 117 ± 2.7 | 121 ± 5.1 | 102 ± 2.1 | 84.2 ± 1.6 | 10.6 ± 4.9 | 81.9 ± 2.5 | 89.4 ± 1.5 | 102 ± 1.9 | 97.36 ± 0.37 | 62.3 ± 2.6 | 1.75 ± 0.065 |
| CO/N=C(\C(=O)N[C@@H]1C(=O)N2C(C(=O)O)=C(CSC(=O)c3ccco3)CS[C@H]12)c1csc(N)n1 [Ceftiofur HCl] | 116 ± 6.8 | 112.1 ± 0.33 | 123 ± 2 | 117 ± 5.6 | 116 ± 2 | 110 ± 1.9 | 98.6 ± 4.3 | 99.23 ± 0.84 | 94.4 ± 3 | 97.5 ± 5.2 | 94.3 ± 1.6 | 94.2 ± 3.3 |
| CN(C)CCCN1c2ccccc2Sc2ccc(Cl)cc21 [Chlorpromazine HCl] | 88.27 ± 0.79 | 87.9 ± 6.9 | 93.3 ± 8.6 | 101 ± 8.9 | 101 ± 7.6 | 81.9 ± 3.2 | 97.7 ± 3.2 | 92.6 ± 5.6 | 95.67 ± 0.89 | 102 ± 6.1 | 91.8 ± 4.6 | 63.7 ± 4.6 |
| CN(C)CC/C=C1/c2ccccc2Sc2ccc(Cl)cc21 [Chlorprothixene] | 93.1 ± 1.6 | 102 ± 5.2 | 102 ± 4.3 | 102.9 ± 0.47 | 108 ± 4 | 100.8 ± 0.6 | 103 ± 2.4 | 106 ± 5.4 | 102.3 ± 0.14 | 108 ± 2.9 | 108.9 ± 0.97 | 89.1 ± 2 |
| COCCOC(=O)C1=C(C)NC(C)=C(C(=O)OC/C=C/c2ccccc2)C1c1cccc([N+](=O)[O-])c1 (stereo not drawn) [Cilnidipine] | 118 ± 4 | 100.5 ± 0.18 | 102.6 ± 0.79 | 95.6 ± 1.2 | 99.98 ± 0.81 | 98 ± 2.2 | 98.6 ± 2.3 | 104 ± 3.4 | 105.9 ± 0.78 | 113 ± 2.5 | 100 ± 1.8 | 104 ± 3.1 |
| O=C1CCc2cc(OCCCCc3nnnn3C3CCCCC3)ccc2N1 [Cilostazol] | 109 ± 1.2 | 102 ± 0.67 | 107.6 ± 0.99 | 109 ± 3 | 96.51 ± 0.85 | 101 ± 2.5 | 107.6 ± 0.22 | 100.9 ± 0.71 | 108 ± 1.6 | 104.6 ± 1 | 101 ± 3.3 | 97.51 ± 0.021 |
| CC(C)(Oc1ccc(C2CC2(Cl)Cl)cc1)C(=O)O (stereo not drawn) [Ciprofibrate] | 105.1 ± 0.47 | 100 ± 4.4 | 103.6 ± 0.33 | 93.48 ± 0.86 | 97 ± 5.4 | 102 ± 1.7 | 107 ± 2.5 | 102 ± 3.9 | 98.7 ± 5 | 109.4 ± 0.22 | 103.1 ± 0.95 | 102 ± 1.3 |
| Nc1nc(Cl)nc2c1ncn2[C@H]1C[C@H](O)[C@@H](CO)O1 [Cladribine] | 106.2 ± 0.9 | 110 ± 1.8 | 113 ± 2.1 | 106.4 ± 0.98 | 97.8 ± 3.5 | 52.73 ± 0.19 | 101 ± 1.4 | 101 ± 2.1 | 105 ± 2.1 | 105 ± 2.4 | 60.3 ± 0.92 | 43.5 ± 0.46 |
| CC[C@H]1OC(=O)[C@H](C)[C@@H](O[C@H]2C[C@@](C)(OC)[C@@H](O)[C@H](C)O2)[C@H](C)[C@@H](O[C@@H]2O[C@H](C)C[C@H](N(C)C)[C@H]2O)[C@](C)(OC)C[C@@H](C)C(=O)[C@H](C)[C@@H](O)[C@]1(C)O [Clarithromycin (Biaxin,Klacid)] | 118 ± 2 | 113 ± 2.8 | 108 ± 0.65 | 115 ± 2.5 | 105 ± 0.45 | 98.8 ± 1.5 | 106 ± 2 | 91.4 ± 2.9 | 104 ± 1.4 | 102 ± 1.1 | 102 ± 3.7 | 93.43 ± 0.4 |
| CCC(C)(Oc1ccc(C2(c3ccc(OC(C)(CC)C(=O)O)cc3)CCCCC2)cc1)C(=O)O (stereo not drawn) [Clinofibrate] | 99.8 ± 0.13 | 107 ± 1.1 | 99.1 ± 2.4 | 99.1 ± 1.4 | 94.4 ± 4.2 | 107 ± 2.1 | 102.4 ± 0.13 | 93 ± 7.7 | 94.9 ± 0.43 | 105 ± 1.8 | 105 ± 3.6 | 91.3 ± 2.9 |
| CCN(CC)CCOc1ccc(C(=C(Cl)c2ccccc2)c2ccccc2)cc1 [Clomifene citrate (Serophene)] | 108 ± 1.1 | 105 ± 6 | 104 ± 3.9 | 102 ± 2.1 | 105 ± 1.7 | 58.6 ± 10 | 102 ± 3.5 | 99.3 ± 1.9 | 97.2 ± 5.9 | 96.14 ± 0.13 | 101 ± 4.7 | 14 ± 0.71 |
| CN(C)CCCN1c2ccccc2CCc2ccc(Cl)cc21 [Clomipramine HCl] | 114 ± 2.6 | 109 ± 1.4 | 111 ± 2.2 | 111 ± 4 | 109.6 ± 0.49 | 85.7 ± 0.93 | 100 ± 4.4 | 102 ± 1.1 | 102 ± 3.2 | 108 ± 3 | 93.4 ± 5.5 | 75.7 ± 1.8 |
| Clc1cccc(Cl)c1NC1=NCCN1 [Clonidine HCl (Catapres)] | 111 ± 5 | 110 ± 5.9 | 101 ± 1.1 | 104 ± 3.7 | 102.3 ± 0.16 | 104 ± 1.4 | 96.4 ± 1.4 | 92.5 ± 0.96 | 93.1 ± 9.7 | 110 ± 0.19 | 113 ± 5.1 | 108 ± 1.1 |
| COC(=O)[C@H](c1ccccc1Cl)N1CCc2sccc2C1 [Clopidogrel Bisulfate] | 105 ± 1.4 | 102 ± 1.4 | 108.3 ± 0.95 | 105 ± 1.4 | 105 ± 4 | 99.8 ± 5.3 | 109.1 ± 0.85 | 108 ± 4.5 | 111 ± 4.1 | 103 ± 2 | 104.86 ± 0.079 | 102.2 ± 0.55 |
| Nc1cc(C(Cl)=C(Cl)Cl)c(S(N)(=O)=O)cc1S(N)(=O)=O [Clorsulon] | 109 ± 2.7 | 111.6 ± 0.7 | 107 ± 1.5 | 101 ± 2.9 | 98.4 ± 1.1 | 106 ± 1.2 | 81.5 ± 3.3 | 86.2 ± 4 | 73.8 ± 6.7 | 88.2 ± 12 | 91.8 ± 5.8 | 79.6 ± 10 |
| CN1CCN(C2=Nc3cc(Cl)ccc3Nc3ccccc32)CC1 [Clozapine] | 100 ± 1.7 | 108 ± 1.1 | 105.2 ± 0.32 | 104 ± 2.2 | 94.53 ± 0.49 | 98.1 ± 3.2 | 101.3 ± 0.79 | 113 ± 2.2 | 109 ± 1.1 | 105 ± 0.64 | 109 ± 0.24 | 92.73 ± 0.46 |
| CC1=C2C[C@H]3[C@@H](CC=C4C[C@@H](O)CC[C@@]43C)[C@@H]2CC[C@]12O[C@@H]1C[C@H](C)CN[C@H]1[C@H]2C [Cyclopamine] | 107 ± 4 | 95.64 ± 0.15 | 99.7 ± 0.74 | 103 ± 1.3 | 112.9 ± 0.35 | 95.49 ± 0.81 | 100 ± 1.7 | 101 ± 1.4 | 98.16 ± 0.86 | 100.3 ± 0.2 | 99.22 ± 0.46 | 98.9 ± 2.2 |
| N#CCNC(=O)c1ccc(-c2ccnc(Nc3ccc(N4CCOCC4)cc3)n2)cc1 [Cyt387] | 101 ± 5.9 | 109 ± 4.2 | 110 ± 1 | 113 ± 1.4 | 104 ± 0.75 | 73.3 ± 2.2 | 115 ± 0.87 | 105.2 ± 0.63 | 110 ± 1.1 | 110.2 ± 0.81 | 106 ± 3.2 | 83.38 ± 0.51 |
| Nc1ccn([C@@H]2O[C@H](CO)[C@@H](O)[C@@H]2O)c(=O)n1 [Cytarabine (Cytosar-U)] | 88.2 ± 4 | 93.49 ± 0.71 | 96.2 ± 2.2 | 89.35 ± 0.62 | 74.5 ± 2.8 | 49.4 ± 1.1 | 115 ± 4.8 | 106 ± 4.1 | 110 ± 0.82 | 105.2 ± 0.25 | 88.313 ± 0.062 | 38 ± 0.93 |
